Experimental data taken from patent US7018457B2, “Azo metal-complexed dyes, ink jet ink compositions and ink jet printing methods” (Polaroid Corporation, priority 2002, dated 2006).

Experiments:
Type in all cases: physicochemical
[1] = Ozone stability of dye coatings in an ozone chamber; settings: Epson paper; about 10 PPM ozone; 16 hours, 8 lamp cycles
[2] = Light stability of dye coatings on receiver papers, Xenon arc at 10,000 ft. candles; settings: for % Density Loss (Y) after 5 Day Xe Arc, Epson / % Density Loss (Y) after 5 Day Xe Arc, Kodak / % Density Loss (Y) after 5 Day Xe Arc, Watercolor: 5 days
Description: (§1) Experiments were carried out with Kodak® Premium Glossy Paper (available from Eastman Kodak Company, Rochester, N.Y.), Epson Premium Glossy Photo Paper (available from Epson Corporation) and Somerset Radiant White watercolor paper (a 100% cotton fiber paper with little or no sizing).
(§2) The dye samples were prepared by initially making a concentrated ink jet fluid (Fluid A) with 35.2% 1,5-pentanediol, 24.8% 2-pyrollidinone, 20% trimethylolpropane and 20% water (by weight). Two parts by weight of Fluid A were diluted with eight parts of water to form Fluid B consisting of approximately 7% 1,5-pentanediol, 5% 2-pyrollidinone, 4% trimethylolpropane and 84% water.
(§3) The test fluids were prepared by dissolving approximately 20 mg of dye with heating and vortex stirring into 1 gram of Fluid B. Once a clear fluid was obtained, the fluid was coated on the ink jet receiver material with a #4 Meyer rod. The coating was dried and the reflection density was measured. When the density was not in the range of from 0.7 to 1.3 the test fluid was diluted with additional Fluid B and the coatings repeated until the reflection density was in the range specified above.
(§4) Samples of the dyes were applied to the papers in a thin film as described above, air dried and the sample exposed in a Xenon arc at 10,000 ft. candles and also to cool white fluorescent bulbs with an irradiance of 2,500 ft. candles.
This example illustrates the light stability of the dyes of formulas V–XV in xenon arc testing. The tests were carried out as described in Example II.
The ozone tests were conducted in an ozone chamber constructed from a large Pyrex jar having a volume of approximately 1.2 ft.^3 and a low temperature mercury-argon lamp (Oriel 6035). Ozone was produced in situ by the direct photolysis of oxygen in the ambient air within the chamber. A fan in the chamber ensured that all the samples were uniformly exposed to the ozone. The lamp power supply was energized under the control of a timer such that the lamp was on for 15 minutes every two hours thereby producing an average ozone concentration of about 10 PPM (24 mg/m^3). The test was carried out for 16 hours, or 8 lamp cycles. The ozone tests were carried out on Epson paper. The light stability experiments were carried out for 5 days at […] on Kodak Glossy Paper.

[3] = Light stability of dye coatings on receiver papers, cool white fluorescent bulbs at 2,500 ft. candles; settings: cool white fluorescent 2,500 ft. candles
Description: as §1, §2, §3, §4

Row | % Loss in Density, Ozone [1] [%] | % Density Loss (Y) after 5 Day Xe Arc, Epson ([2]; Epson Premium Glossy Photo Paper, Xenon arc 10,000 ft. candles) [%] | % Loss in Density, Light ([2]; Kodak Glossy Paper, 5 days at 10,00 ft. candles) [%] | % Density Loss (Y) after 5 Day Xe Arc, Kodak ([2]; Kodak Premium Glossy Paper, Xenon arc 10,000 ft. candles) [%] | % Density Loss (Y) after 5 Day Xe Arc, Watercolor ([2]; Somerset Radiant White watercolor paper, Xenon arc 10,000 ft. candles) [%] | % Density Loss after 3 weeks under fluorescent light, Epson ([3]; Epson paper) [%] | % Density Loss after 3 weeks under fluorescent light, Kodak ([3]; Kodak paper) [%] | % Density Loss after 3 weeks under fluorescent light, Watercolor ([3]; watercolor paper) [%] | % Density Loss (Y) after 5 Day Xe Arc, Epson ([2]; Table IV, Epson paper, Xenon arc as in Example II) [%] | % Density Loss (Y) after 5 Day Xe Arc, Kodak ([2]; Table IV, Kodak paper, Xenon arc as in Example II) [%] | % Density Loss (Y) after 5 Day Xe Arc, Watercolor ([2]; Table IV, watercolor paper, Xenon arc as in Example II) [%] | Compound
1 | −29 | −7 | −90 | −85 | −23 | 1 | −51 | −7 | – | – | – | Cc1nn(-c2ccc(S(=O)(=O)[O-])cc2)c(O)c1N=Nc1ccc(S(=O)(=O)[O-])cc1C(=O)[O-].[Na+].[Na+].[Na+] [Control, 2-[5-hydroxy-3-methyl-1-(4-sulfophenyl)-1H-pyrazol-4-ylazo]-5-sulfobenzoic acid sodium salt]
2 | – | – | – | – | – | – | – | – | 17 | −52 | −19 | Cc1nn(-c2ccc(S(=O)(=O)[O-])cc2)c2c1N=Nc1ccc(S(=O)(=O)[O-])cc1C(=O)[O][Co][O]2.O.[Na+].[Na+] [VI]
